Measured values as given in article PMC8913831 (Scientific Reports, 2022).

Biological target: T1, CbCBP (cellobiose phosphorylase) (Caldicellulosiruptor bescii, UniProt A0ABY1SBL4)
T1 construct: gene SAMN05216240_2653; C-terminal (His)6 tag, pET20b, E. coli BL21 CodonPlus-RIL; 94 kDa on SDS-PAGE, about 200 kDa native (homodimer); GH94
T1 sequence (A0ABY1SBL4 1-811): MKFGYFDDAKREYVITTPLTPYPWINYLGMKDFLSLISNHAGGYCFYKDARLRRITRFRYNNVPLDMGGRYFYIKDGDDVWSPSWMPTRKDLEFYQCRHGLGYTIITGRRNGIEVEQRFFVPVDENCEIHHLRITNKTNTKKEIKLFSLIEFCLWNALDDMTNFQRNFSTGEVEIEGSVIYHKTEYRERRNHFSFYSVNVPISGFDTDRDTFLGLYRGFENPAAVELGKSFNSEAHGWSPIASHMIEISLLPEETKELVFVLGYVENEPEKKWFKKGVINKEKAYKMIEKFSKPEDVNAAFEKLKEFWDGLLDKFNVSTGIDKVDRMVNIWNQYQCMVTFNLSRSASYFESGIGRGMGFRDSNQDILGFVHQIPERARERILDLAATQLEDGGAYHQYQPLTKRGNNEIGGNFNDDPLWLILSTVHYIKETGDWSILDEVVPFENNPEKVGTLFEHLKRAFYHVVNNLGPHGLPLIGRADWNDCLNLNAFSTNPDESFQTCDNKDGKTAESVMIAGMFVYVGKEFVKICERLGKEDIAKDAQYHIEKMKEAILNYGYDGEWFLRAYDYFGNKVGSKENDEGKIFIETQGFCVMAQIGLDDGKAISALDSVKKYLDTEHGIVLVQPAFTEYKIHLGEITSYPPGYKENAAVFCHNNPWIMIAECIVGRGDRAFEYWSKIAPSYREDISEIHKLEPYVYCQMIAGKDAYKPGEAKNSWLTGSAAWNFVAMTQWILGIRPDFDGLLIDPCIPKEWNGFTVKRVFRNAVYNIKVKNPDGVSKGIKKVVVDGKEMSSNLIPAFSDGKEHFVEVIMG
Experiment: initial velocity, D-glucose release (glucose oxidase-peroxidase), fit to ordered Bi Bi equation
Assay type: biochemical
Conditions: phosphorolysis; substrate constant of the ordered Bi Bi rate equation with A = cellobiose, not an inhibitor constant; text states Pi binds first; MES-NaOH pH 7.0; 75 °C in Methods, 70 °C in Results
Text: initial velocity, D-glucose release (glucose oxidase-peroxidase), fit to ordered Bi Bi equation on CbCBP (cellobiose phosphorylase)

- Ki^A: 3.3 mM
Structure (SMILES): OC[C@H]1O[C@@H](O[C@H]2[C@H](O)[C@@H](O)C(O)O[C@@H]2CO)[C@H](O)[C@@H](O)[C@@H]1O (stereo partly shown) [cellobiose]
